In patent US20260365628A1, “SUBSTITUTED 3,4-DIHYDROQUINOLINONE INHIBITORS OF TSHR” (Septerna, Inc., priority 2022, published 2026):

What follows are molecules tested against T1, hTSHR (Homo sapiens, UniProt P16473) (assay: hTSHR TR-FRET cAMP Assay (inhibition of M22-stimulated cAMP production)). Details: Expi293F Inducible cells stably expressing hTSHR; cAMP HTRF; stimulated with EC80 of anti-TSHR antibody M22; 15 min compound preincubation, 30 min at 37° C.; read-out: Activity (IC50 bins).
T1 construct: expressed in transfected cells
T1 sequence (P16473 21-764): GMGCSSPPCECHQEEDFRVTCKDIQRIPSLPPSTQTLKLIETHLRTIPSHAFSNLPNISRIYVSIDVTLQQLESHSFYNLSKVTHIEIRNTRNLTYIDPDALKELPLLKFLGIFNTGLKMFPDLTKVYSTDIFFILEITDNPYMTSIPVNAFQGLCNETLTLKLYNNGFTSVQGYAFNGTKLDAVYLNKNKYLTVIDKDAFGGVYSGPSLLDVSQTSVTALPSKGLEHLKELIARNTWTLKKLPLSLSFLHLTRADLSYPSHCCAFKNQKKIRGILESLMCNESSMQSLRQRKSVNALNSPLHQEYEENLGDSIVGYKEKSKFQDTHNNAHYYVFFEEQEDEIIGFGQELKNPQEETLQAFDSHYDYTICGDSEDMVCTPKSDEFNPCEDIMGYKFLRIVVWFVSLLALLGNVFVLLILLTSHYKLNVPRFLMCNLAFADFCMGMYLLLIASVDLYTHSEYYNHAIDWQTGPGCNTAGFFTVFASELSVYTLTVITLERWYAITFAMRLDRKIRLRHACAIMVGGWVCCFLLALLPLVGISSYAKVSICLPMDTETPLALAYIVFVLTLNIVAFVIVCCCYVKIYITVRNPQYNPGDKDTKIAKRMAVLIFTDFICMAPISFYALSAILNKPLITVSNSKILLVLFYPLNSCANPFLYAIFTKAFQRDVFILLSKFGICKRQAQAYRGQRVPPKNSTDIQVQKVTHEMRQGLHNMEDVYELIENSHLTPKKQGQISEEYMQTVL
Format: cell-based
Summary of the method: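 Readout was a cAMP HTRF ratio of 655/620 nm after lysis, scaled between the EC80 M22 signal (0% inhibition) and no-agonist vehicle (100%). Frozen induced Expi293F-hTSHR cells saw test compounds (0.5% DMSO) for 15 min at 37 °C before 30 min of M22 stimulation at EC80.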
Work on `C[C@H]1Oc2cc(NC(=O)NC(C)(C)C)ccc2N(Cc2ccnc(C(F)(F)F)n2)C1=O` [Example 167, (R)-1-(tert-butyl)-3-(2-methyl-3-oxo-4-((2-(trifluoro-methyl)pyrimidin-4-yl)methyl)-3,4-dihydro-2H-benzo [b][1,4]oxazin-7-yl)urea] yielded an IC50 of 100 to 1000 nM.
`C[C@H]1Oc2cc(NC(=O)NC3(C(F)(F)F)CC(F)(F)C3)ccc2N([C@@H](C)c2ccccc2)C1=O` [Example 264, 1-(3,3-difluoro-1-(trifluoromethyl)-cyclobutyl)-3-((R)-2-methyl-3-oxo-4-((S)-1-phenylethyl)-3,4-dihydro-2H-benzo[b][1,4]oxazin-7-yl)urea] gave an IC50 of 100 to 1000 nM.
For `C[C@@H](c1cccc(OC(F)(F)F)c1)n1c(=O)cnc2cc(NC(=O)NC(C)(C)C(F)(F)F)ccc21` [Example 208, (S)-1-(2-oxo-1-(1-(3-(trifluoromethoxy)phenyl)ethyl)-1,2-dihydroquinoxalin-6-yl)-3-(1,1,1-trifluoro-2-methylpropan-2-yl)urea], the IC50 was 100 to 1000 nM.
With `C[C@H]1Oc2cc(NC(=O)NC3(C)CCCC3)ccc2N([C@@H](C)c2cccc(OC(F)(F)F)n2)C1=O` [Example 323, 1-((R)-2-methyl-3-oxo-4-((S)-1-(6-(trifluoromethoxy)pyridin-2-yl)ethyl)-3,4-dihydro-2H-benzo[b][1,4]oxazin-7-yl)-3-(1-methylcyclopentyl)urea] the IC50 was < 100 nM.
For `C[C@@H](c1ccccc1)n1c(=O)cnc2cc(NC(=O)NC(C)(C)C)ccc21` [Example 98, (S)-1-(tert-butyl)-3-(2-oxo-1-(1-phenylethyl)-1,2-dihydroquinoxalin-6-yl)urea], the IC50 was 100 to 1000 nM.
In the case of `C[C@H]1Oc2cc(NC(=O)NC(C)(C)C)ccc2N([C@@H](C)c2ccccc2)C1=O` [Example 269, 1-(tert-butyl)-3-((R)-2-methyl-3-oxo-4-((S)-1-phenylethyl)-3,4-dihydro-2H-benzo[b][1,4]oxazin-7-yl)urea], the IC50 is reported as < 100 nM.
`CC(C)(C)NC(=O)Nc1ccc2c(c1)ncc(=O)n2Cc1ccccc1` [Example 68, 1-(1-benzyl-2-oxo-1,2-dihydroquinoxalin-6-yl)-3-(tert-butyl)urea] was tested, and the IC50 was < 100 nM.
Molecule `Cc1nc2cc(NC(=O)NC(C)(C)C)ccc2n([C@@H](C)c2cccc(C(F)(F)F)c2)c1=O` [Example 181, (S)-1-(tert-butyl)-3-(3-methyl-2-oxo-1-(1-(3-(trifluoromethyl)phenyl)ethyl)-1,2-dihydroquinoxalin-6-yl)urea] has an IC50 of 100 to 1000 nM.
With `C[C@H]1Oc2cc(NC(=O)NC3(C(F)(F)F)COC3)ccc2N([C@@H](C)c2ccccc2)C1=O` [Example 263, 1-((R)-2-methyl-3-oxo-4-((S)-1-phen-ylethyl)-3,4-dihydro-2H-benzo[b][1,4]oxazin-7-yl)-3-(3-(trifluoromethyl)-oxetan-3-yl)urea] the IC50 was 100 to 1000 nM.
`Cc1cccc(CN2C(=O)COc3cc(NC(=O)NC(C)(C)C)ccc32)c1` [Example 40, 1-(tert-butyl)-3-(4-(3-methylbenzyl)-3-oxo-3,4-dihydro-2H-benzo[b][1,4]oxazin-7-yl)urea] was tested, and the IC50 was < 100 nM.
Work on `C[C@@H](c1cccc(OC(F)(F)F)c1)n1c(=O)cnc2cc(NC(=O)N[C@H]3C[C@@H](C(F)(F)F)C3)ccc21` [Example 224, 1-(2-oxo-1-((S)-1-(3-(trifluoromethoxy)phenyl)ethyl)-1,2-dihydroquinoxalin-6-yl)-3-((1s,3S)-3-(trifluoromethyl)cyclobutyl)urea] yielded an IC50 of 100 to 1000 nM.
For `C[C@H]1Oc2cc(NC(=O)OC3CCCC3)ccc2N([C@@H](C)c2ccccc2)C1=O` [Example 303, cyclopentyl ((R)-2-methyl-3-oxo-4-((S)-1-phenylethyl)-3,4-dihydro-2H-benzo[b][1,4]oxazin-7-yl)carbamate], the IC50 was < 100 nM.
In the case of `C[C@@H](c1cc(Cl)ccc1Cl)n1c(=O)cnc2cc(NC(=O)NC(C)(C)C)c(Cl)cc21` [Example 365, (S)-1-(tert-butyl)-3-(7-chloro-1-(1-(2,5-dichlorophenyl)ethyl)-2-oxo-1,2-dihydroquinoxalin-6-yl)urea], the IC50 is reported as < 100 nM.
Work on `C[C@H]1Oc2cc(NC(=O)NC(C)(C)C)ccc2N(Cc2csc(C(F)(F)F)n2)C1=O` [Example 165, (R)-1-(tert-butyl)-3-(2-methyl-3-oxo-4-((2-(trifluoro-methyl)thiazol-4-yl)methyl)-3,4-dihydro-2H-benzo [b][1,4]oxazin-7-yl)urea] yielded an IC50 of 100 to 1000 nM.
`C[C@@H](c1cccc(Cl)c1Cl)n1c(=O)cnc2cc(NC(=O)NC(C)(C)C)ccc21` [Example 142, (S)-1-(tert-butyl)-3-(1-(1-(2,3-dichlorophenyl)ethyl)-2-oxo-1,2-dihydroquinoxalin-6-yl)urea] showed an IC50 of 100 to 1000 nM.
For `CC(C)(C)NC(=O)Nc1ccc2c(c1)ncc(=O)n2Cc1cccc(C(F)(F)F)c1` [Example 90, 1-(tert-butyl)-3-(2-oxo-1-(3-(trifluoro-methyl)benzyl)-1,2-di-hydro-quinoxalin-6-yl)urea], the IC50 was 100 to 1000 nM.
In the case of `C[C@@H](c1cccc(OC2CCCC2)c1)n1c(=O)cnc2cc(NC(=O)NC(C)(C)C)ccc21` [Example 111, (S)-1-(tert-butyl)-3-(1-(1-(3-(cyclo-pentyloxy)phenyl)ethyl)-2-oxo-1,2-dihydroquinoxalin-6-yl)urea], the IC50 is reported as > 1000 nM.
`C[C@H]1Oc2cc(NC(=O)NC3(C)CCOCC3)ccc2N([C@@H](C)c2ccccc2)C1=O` [Example 265, 1-((R)-2-methyl-3-oxo-4-((S)-1-phen-ylethyl)-3,4-dihydro-2H-benzo[b][1,4]oxazin-7-yl)-3-(4-methyltetrahydro-2H-pyran-4-yl)urea] was tested, and the IC50 was 100 to 1000 nM.
For `C[C@@H](c1cccc(Cl)c1)n1c(=O)cnc2cc(NC(=O)NC(C)(C)C)c(C(F)(F)F)cc21` [Example 358, 3-tert-butyl-1-{1-[(1S)-1-(3-chlorophenyl)ethyl]-2-oxo-7-(trifluoromethyl)quinoxalin-6-yl}urea], the IC50 was 100 to 1000 nM.
For `C[C@@H](c1cccc(OC(F)(F)F)c1)n1c(=O)cnc2cc(NC(=O)NC3(C)CCCCC3)ccc21` [Example 210, (S)-1-(1-methylcyclohexyl)-3-(2-oxo-1-(1-(3-(trifluoromethoxy)phenyl)ethyl)-1,2-dihydroquinoxalin-6-yl)urea], the IC50 was < 100 nM.
`C[C@@H](c1cccc(C(F)F)c1)n1c(=O)cnc2cc(NC(=O)NC(C)(C)C)ccc21` [Example 122, (S)-1-(tert-butyl)-3-(1-(1-(3-(difluoro-methyl)phenyl)ethyl)-2-oxo-1,2-dihydroquinoxalin-6-yl)urea] showed an IC50 of 100 to 1000 nM.
`CN1Cc2cc(NC(=O)NC(C)(C)C)ccc2N(Cc2cccc(C(F)(F)F)c2)C1=O` [Example 70, 1-(tert-butyl)-3-(3-methyl-2-oxo-1-(3-(trifluoromethyl)benzyl)-1,2,3,4-tetrahydroquinazolin-6-yl)urea] was tested, and the IC50 was < 100 nM.
`C[C@H]1Oc2cc(NC(=O)NC(C)(C)C)ccc2N([C@@H](C)c2cccc(C(F)F)c2)C1=O` [Example 185, 1-(tert-butyl)-3-((R)-4-((S)-1-(3-(difluoromethyl)phenyl)ethyl)-2-methyl-3-oxo-3,4-dihydro-2H-benzo[b][1,4]oxazin-7-yl)urea] was tested, and the IC50 was < 100 nM.
With `C[C@H]1Oc2cc(NC(=O)NC(C)(C)C)ccc2N(Cc2cccc(C(F)(F)F)n2)C1=O` [Example 161, (R)-1-(tert-butyl)-3-(2-methyl-3-oxo-4-((6-(trifluoro-methyl)pyridin-2-yl)methyl)-3,4-dihydro-2H-benzo [b][1,4]oxazin-7-yl)urea] the IC50 was < 100 nM.
Work on `CC(C)(C)NC(=O)Nc1ccc2c(c1Cl)CCC(=O)N2Cc1ccccc1` [Example 267, 1-(1-benzyl-5-chloro-2-oxo-1,2,3,4-tetrahydroquinolin-6-yl)-3-(tert-butyl)urea] yielded an IC50 of 100 to 1000 nM.
For `C[C@H]1Oc2nc(NC(=O)NC(C)(C)C)c(Cl)cc2N(Cc2ccccc2)C1=O` [Example 355, 1-[(3R)-1-benzyl-7-chloro-3-methyl-2-oxo-3H-pyrido[2,3-b][1,4]oxazin-6-yl]-3-tert-butylurea], the IC50 was 100 to 1000 nM.
Work on `C[C@@H](c1cccc(OC(F)(F)F)c1)n1c(=O)cnc2cc(NC(=O)N[C@H]3C[C@H](C(F)(F)F)C3)ccc21` [Example 223, 1-(2-oxo-1-((S)-1-(3-(trifluoromethoxy)phenyl)ethyl)-1,2-dihydroquinoxalin-6-yl)-3-((1r,3R)-3-(trifluoromethyl)cyclobutyl)urea] yielded an IC50 of 100 to 1000 nM.
`C[C@@H](c1cccc(OC(F)(F)F)c1)n1c(=O)cnc2cc(NC(=O)NC3(C)CCC3)ccc21` [Example 200, (S)-1-(1-methylcyclobutyl)-3-(2-oxo-1-(1-(3-(trifluoromethoxy)phenyl)ethyl)-1,2-dihydroquinoxalin-6-yl)urea] was tested, and the IC50 was < 100 nM.
`CC1(NC(=O)Nc2ccc3c(c2)ncc(=O)n3Cc2ccccc2)CCCC1` [Example 193, 1-(1-benzyl-2-oxo-1,2-dihydroquinoxalin-6-yl)-3-(1-methylcyclopentyl) urea] was tested, and the IC50 was 100 to 1000 nM.
`CC(C)(C)NC(=O)Nc1ccc2c(c1)CNC(=O)N2Cc1ccccc1` [Example 302, 1-(1-benzyl-2-oxo-1,2,3,4-tetrahydroquinazolin-6-yl)-3-(tert-butyl)urea] was tested, and the IC50 was > 1000 nM.
`C[C@H]1Oc2cc(NC(=O)NC(C)(C)C)ccc2N(Cc2cccc(C(O)C(F)(F)F)n2)C1=O` (stereo partly drawn) [Example 173, 1-(tert-butyl)-3-((2R)-2-methyl-3-oxo-4-((6-(2,2,2-trifluoro-1-hydroxy-ethyl)pyridin-2-yl)methyl)-3,4-dihydro-2H-benzo [b][1,4]oxazin-7-yl)urea] was tested, and the IC50 was 100 to 1000 nM.
For `Cc1ccc(Cl)cc1[C@H](C)n1c(=O)cnc2cc(NC(=O)NC(C)(C)C)ccc21` [Example 141, (S)-1-(tert-butyl)-3-(1-(1-(5-chloro-2-methylphenyl)ethyl)-2-oxo-1,2-dihydroquinoxalin-6-yl)urea], the IC50 was 100 to 1000 nM.
For `C[C@@H](c1cc(Cl)ccc1F)n1c(=O)cnc2cc(NC(=O)NC(C)(C)C)c(C#N)cc21` [Example 364, 3-tert-butyl-1-{1-[(1S)-1-(5-chloro-2-fluorophenyl)ethyl]-7-cyano-2-oxoquinoxalin-6-yl}urea], the IC50 was 100 to 1000 nM.
